From patent publication US4465692A (Nelson Research & Development Company, priority 1982, dated 1984)

Tests used:
[1] = biological target: D-1 receptor; assay: D-1 receptor in carp retina (in vitro); conditions: concentration of agonist required to inhibit the biochemical response by 50%, read-out: Fish retina D-1 receptor IC50
[2] = biological target: D-2 receptor (Rattus norvegicus, UniProt P61169)
D-2 receptor, sequence (P61169 whole entry): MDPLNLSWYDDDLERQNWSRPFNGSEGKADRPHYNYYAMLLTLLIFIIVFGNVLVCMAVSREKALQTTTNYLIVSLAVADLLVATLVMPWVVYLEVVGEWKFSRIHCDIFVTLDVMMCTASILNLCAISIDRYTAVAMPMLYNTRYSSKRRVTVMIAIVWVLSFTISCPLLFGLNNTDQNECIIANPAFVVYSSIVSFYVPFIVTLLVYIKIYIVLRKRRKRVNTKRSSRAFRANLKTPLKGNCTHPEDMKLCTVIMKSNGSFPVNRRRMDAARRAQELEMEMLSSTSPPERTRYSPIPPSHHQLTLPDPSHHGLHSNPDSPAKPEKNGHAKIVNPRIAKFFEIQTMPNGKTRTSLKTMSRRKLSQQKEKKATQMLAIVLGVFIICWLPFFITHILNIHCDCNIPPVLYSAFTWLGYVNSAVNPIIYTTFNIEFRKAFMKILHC

With `CCCN(CCc1ccccc1)C1CCc2c(O)cccc2C1` (stereo not shown) [PPHT, 2-(N-phenylethyl-N-propylamino)-5-hydroxytetralin] the IC50 [1] was 3.7 µM, the “times more potent than apomorphine at the D-2 receptor” value ([2]; relative to apomorphine) was “approximately 40 times” and the “times more potent than dopamine at the D-2 receptor” value ([2]; relative to dopamine) was 250 times.
For `CN1CCc2cccc3c2[C@H]1Cc1ccc(O)c(O)c1-3` [Apomorphine, reference compound], the IC50 [1] was 1.5 µM.
